ChEMBL document CHEMBL4420060, “Combinatorial therapies for the treatment of neoplasias using the opioid growth factor receptor” (2013)
Active and inactive are the calls of the source. The calls are words filed in the database; no cut-off is given here.

How the values were obtained:
MIA PaCa-2 [1] = experiment: Antitumor activity against human MIAPaCa2 cells xenografted in athymic BALB/c nu/nu nude mouse assessed as effect on tumor incidence at 120 mg/kg dosed every 3 days and co-treated with 10 mg/kg OGF measured on day 16 after tumor cell inoculation relative to control; format: functional, organism-based
UMSCC1 [2] = experiment: Induction of cell cycle arrest in human UM-SCC-1 cells assessed as accumulation at G1/S phase after 6 hrs by flow cytometry; format: functional, cell-based
MIA PaCa-2 [3] = experiment: Antitumor activity against human MIAPaCa2 cells xenografted in athymic BALB/c nu/nu nude mouse assessed spleen weight at 120 mg/kg dosed every 3 days and co-treated with 10 mg/kg OGF measured on day 45 after tumor cell inoculation (reference value: 761 +/- 61 mg); format: functional
[4] = Toxicity in athymic BALB/c nu/nu nude mouse xenografted with human MIAPaCa2 cells assessed as body weight at 120 mg/kg dosed every 3 days and co-treated with 10 mg/kg OGF measured on day 45 after tumor cell inoculation (reference value: 33.3 +/- 1 g); format: organism-based; details: in vivo, 72 h
MIA PaCa-2 [5] = experiment: Antitumor activity against human MIAPaCa2 cells xenografted in athymic BALB/c nu/nu nude mouse assessed as tumor incidence at 10 mg/kg dosed daily measured on day 10 after tumor cell inoculation (reference value: 80%); format: functional
UMSCC1 [6] = experiment: Antitumor activity against human UM-SCC-1 cells xenografted in nu/nu mouse assessed as latency time for measurable (62.5 mm3) tumors at 120 mg/kg dosed every 3 days and co-treated with 10 mg/kg OGF (Rvb <=14 days); format: functional
[7] = Toxicity in athymic BALB/c nu/nu nude mouse xenografted with human MIAPaCa2 cells assessed as body weight at 10 mg/kg dosed daily measured on day 45 after tumor cell inoculation (reference value: 33.3 +/- 1 g); format: organism-based; details: in vivo
MIA PaCa-2 [8] = experiment: Antitumor activity against human MIAPaCa2 cells xenografted in athymic BALB/c nu/nu nude mouse assessed as effect on tumor incidence at 120 mg/kg dosed every 3 days measured on day 16 after tumor cell inoculation relative to control; format: functional, organism-based
MIA PaCa-2 [9] = experiment: Growth inhibition of human MIAPaCa2 cells assessed as decrease in cell number at 0.01 uM incubated for 96 hrs in presence of 1 uM opioid antagonist naloxone by MTS assay relative to control; format: functional, cell-based
MIA PaCa-2 [10] = experiment: Growth inhibition of human MIAPaCa2 cells assessed as decrease in cell number at 0.01 uM incubated for 48 hrs in presence of 1 uM OGF by trypan blue staining assay relative to control; format: functional
MIA PaCa-2 [11] = experiment: Antitumor activity against human MIAPaCa2 cells xenografted in athymic BALB/c nu/nu nude mouse assessed tumor volume at 10 mg/kg dosed daily measured on day 45 after tumor cell inoculation (reference value: 8935 +/- 1694 mm3); format: functional
MIA PaCa-2 [12] = experiment: Antitumor activity against human MIAPaCa2 cells xenografted in athymic BALB/c nu/nu nude mouse assessed spleen weight at 10 mg/kg dosed daily measured on day 45 after tumor cell inoculation (reference value: 761 +/- 61 mg); format: functional
UMSCC1 [13] = experiment: Antitumor activity against human UM-SCC-1 cells xenografted in nu/nu mouse assessed as reduction in tumor measured on 4 to 36 day of measurable tumors at 120 mg/kg dosed every 3 days relative to control; format: functional, organism-based
MIA PaCa-2 [14] = experiment: Antitumor activity against human MIAPaCa2 cells xenografted in athymic BALB/c nu/nu nude mouse assessed as latency time for measurable tumor at 10 mg/kg dosed daily measured on day 10 after tumor cell inoculation (reference value: 13.2 +/- 1.8 days); format: functional
UMSCC1 [15] = experiment: Growth inhibition of human UM-SCC-1 cells assessed as decrease in cell number at 0.01 uM in presence of 1 uM opioid antagonist naloxone incubated for 24 to 96 hrs by MTS assay relative to control; format: functional, cell-based
MIA PaCa-2 [16] = experiment: Antitumor activity against human MIAPaCa2 cells xenografted in athymic BALB/c nu/nu nude mouse assessed as tumor incidence at 120 mg/kg dosed every 3 days and co-treated with 10 mg/kg OGF measured on day 10 after tumor cell inoculation (reference value: 80%); format: functional
MIA PaCa-2 [17] = experiment: Antitumor activity against human MIAPaCa2 cells xenografted in athymic BALB/c nu/nu nude mouse assessed tumor weight at 10 mg/kg dosed daily measured on day 45 after tumor cell inoculation (reference value: 5.5 +/- 1 g); format: functional
UMSCC1 [18] = experiment: Induction of cell cycle arrest in human UM-SCC-1 cells assessed as accumulation at G1/S phase in presence of OGF after 6 hrs by flow cytometry; format: functional, cell-based
MIA PaCa-2 [19] = experiment: Antitumor activity against human MIAPaCa2 cells xenografted in athymic BALB/c nu/nu nude mouse assessed as effect on tumor incidence at 10 mg/kg dosed daily measured on day 16 after tumor cell inoculation relative to control; format: functional, organism-based
UMSCC1 [20] = experiment: Antitumor activity against human UM-SCC-1 cells xenografted in nu/nu mouse assessed as reduction in tumor measured on 4 to 36 day of measurable tumors at 120 mg/kg dosed every 3 days and co-treated with 10 mg/kg OGF relative to control; format: functional, organism-based
MIA PaCa-2 [21] = experiment: Growth inhibition of human MIAPaCa2 cells assessed as decrease in cell number at 0.01 uM incubated for 72 hrs in presence of 1 uM OGF by trypan blue staining assay relative to control; format: functional
MIA PaCa-2 [22] = experiment: Antitumor activity against human MIAPaCa2 cells xenografted in athymic BALB/c nu/nu nude mouse assessed tumor volume at 120 mg/kg dosed every 3 days and co-treated with 10 mg/kg OGF measured on day 45 after tumor cell inoculation (reference value: 8935 +/- 1694 mm3); format: functional
Mus musculus [23] = experiment: Effect on plasma OGF level in athymic BALB/c nu/nu nude mouse xenografted with MIAPaCa2 cells at 120 mg/kg dosed every 3 days by radioimmunoassay; format: functional, organism-based
Mus musculus [24] = experiment: Effect on plasma OGF level in athymic BALB/c nu/nu nude mouse xenografted with MIAPaCa2 cells at 120 mg/kg dosed every 3 days and co-treated with 10 mg/kg OGF by radioimmunoassay; format: functional, organism-based
MIA PaCa-2 [25] = experiment: Antitumor activity against human MIAPaCa2 cells xenografted in athymic BALB/c nu/nu nude mouse assessed as latency time for measurable tumor at 120 mg/kg dosed every 3 days and co-treated with 10 mg/kg OGF measured on day 10 after tumor cell inoculation (reference value: 13.2 +/- 1.8 days); format: functional
UMSCC1 [26] = experiment: Induction of cell cycle arrest in human UM-SCC-1 cells assessed as reduction in accumulation at G2/M phase in presence of OGF after 6 hrs by flow cytometry; format: functional, cell-based
MIA PaCa-2 [27] = experiment: Growth inhibition of human MIAPaCa2 cells assessed as decrease in cell number at 0.01 uM incubated for 48 hrs in presence of 1 uM OGF by MTS assay relative to control; format: functional
MIA PaCa-2 [28] = experiment: Antitumor activity against human MIAPaCa2 cells xenografted in athymic BALB/c nu/nu nude mouse assessed as reduction in tumor weight at 120 mg/kg dosed every 3 days and co-treated with 10 mg/kg OGF measured on day 45 after tumor cell inoculation; format: functional; parameters: scale not given: the % may be the effect or the level left

For Nc1ccn([C@@H]2O[C@H](CO)[C@@H](O)C2(F)F)c(=O)n1 [GEMCITABINE], which Activity (MIA PaCa-2 [1]) is on record?
The Activity was “inactive”.

What about the Activity (UMSCC1 [2]) of the same compound?
Its Activity is “Active”.

What about the Activity (MIA PaCa-2 [3]) of the same compound?
The Activity was 437 mg.

What about the Activity [4] of the same compound?
Its Activity is 30.6 g.

And the Activity (MIA PaCa-2 [5])?
Its Activity is 60%.

What about the Time (UMSCC1 [6]) of the same compound?
The Time was 20 days.

What about the Activity [7] of the same compound?
The Activity was 31.4 g.

What about the Activity (MIA PaCa-2 [8]) of the same compound?
The Activity was “inactive”.

What about the “growth inhibition (GI)” value (MIA PaCa-2 [9]) of the same compound?
Its value is “Active”.

What about the “growth inhibition (GI)” value (MIA PaCa-2 [10]) of the same compound?
Its value is 26.3%.

And the Activity (MIA PaCa-2 [11])?
Its Activity is 4849 mm3.

And the Activity (MIA PaCa-2 [12])?
Its Activity is 606 mg.

And the Activity (UMSCC1 [13])?
Its Activity is “Active”.

What about the Time (MIA PaCa-2 [14]) of the same compound?
Its Time is 14.2 days.

What about the “growth inhibition (GI)” value (UMSCC1 [15]) of the same compound?
Its value is “Active”.

What about the Activity (MIA PaCa-2 [16]) of the same compound?
Its Activity is 0%.

What about the Activity (MIA PaCa-2 [17]) of the same compound?
The Activity was 3.5 g.

And the Activity (UMSCC1 [18])?
Its Activity is “Active”.

What about the Activity (MIA PaCa-2 [19]) of the same compound?
Its Activity is “inactive”.

And the Activity (UMSCC1 [20])?
The Activity was “Active”.

What about the “growth inhibition (GI)” value (MIA PaCa-2 [21]) of the same compound?
Its value is 49.2%.

And the Activity (MIA PaCa-2 [22])?
Its Activity is 1477 mm3.

And the Activity (Mus musculus [23])?
Its Activity is “inactive”.

What about the Activity (Mus musculus [24]) of the same compound?
The Activity was “inactive”.

What about the Time (MIA PaCa-2 [25]) of the same compound?
Its Time is 19.5 days.

And the Activity (UMSCC1 [26])?
The Activity was “Active”.

And the “growth inhibition (GI)” value (MIA PaCa-2 [27])?
Its value is 26%.

What about the Activity (MIA PaCa-2 [28]) of the same compound?
The Activity was 85%.
